According to the supplement of paper PMC10307832:

Key:
Experiment in all cases: relative viability (nuclei count vs DMSO), 5 days (fraction); higher = more cells survive
NCI-H2405 = system: NCI-H2405
Method in brief: (§1)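 A single step with final 0.05% Triton X-100, 1% formaldehyde and 1 ug/ml Hoechst fixed the cells and stained nuclei 5 days after treatment. Lung cancer cell lines in 1536-well plates had been treated by pin tool the day after seeding with one drug alone or a fixed anchor-drug dose plus five library-drug doses (not always all listed) in √10 steps, and nuclei were counted on 4× images. Relative viability is the ratio of nuclei in treated wells to nuclei in vehicle wells, taken as the median of duplicate plates.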

SK-MES-1 = system: SK-MES-1
Method in brief: as §1

NCI-H647 = system: NCI-H647
Method in brief: as §1

NCI-H1915 = system: NCI-H1915
Method in brief: as §1

A-427 = system: A-427
Method in brief: as §1

NCI-H661 = system: NCI-H661
Method in brief: as §1

COR-L23 = system: COR-L23
Method in brief: as §1

NCI-H1993 = system: NCI-H1993
Method in brief: as §1

COR-L 105 = system: COR-L 105
Method in brief: as §1

HCC-366 = system: HCC-366
Method in brief: as §1

PC-14 = system: PC-14
Method in brief: as §1

`Cc1cn(-c2cc(NC(=O)c3ccc(C)c(Nc4nccc(-c5cccnc5)n4)c3)cc(C(F)(F)F)c2)cn1` [Nilotinib] + Cc1nc(NC(=O)N2CCC[C@H]2C(N)=O)sc1-c1ccnc(C(C)(C)C(F)(F)F)c1 [Alpelisib] (partner 2 µM) showed a relative viability (NCI-H2405; first compound 0.001 µM) of 0.808, a relative viability (NCI-H2405; first compound 0.003162 µM) of 0.733 and a relative viability (NCI-H2405; first compound 0.01 µM) of 0.715. It also gave a relative viability (NCI-H2405; first compound 0.03162 µM) of 0.597, a relative viability (NCI-H2405; first compound 0.1 µM) of 0.486 and a relative viability (SK-MES-1; first compound 0.001 µM) of 0.881. It also gave a relative viability (SK-MES-1; first compound 0.003162 µM) of 1.15, a relative viability (SK-MES-1; first compound 0.01 µM) of 0.95 and a relative viability (SK-MES-1; first compound 0.03162 µM) of 0.829. For the same molecule, the relative viability (SK-MES-1; first compound 0.1 µM) was 1.01, the relative viability (NCI-H647; first compound 0.001 µM) was 0.956 and the relative viability (NCI-H647; first compound 0.003162 µM) was 1.16. The relative viability (NCI-H647; first compound 0.03162 µM) was 0.958, the relative viability (NCI-H647; first compound 0.1 µM) was 0.872 and the relative viability (NCI-H1915; first compound 0.001 µM) was 0.981. The relative viability (NCI-H1915; first compound 0.003162 µM) was 1.1, the relative viability (NCI-H1915; first compound 0.01 µM) was 1.14 and the relative viability (NCI-H1915; first compound 0.03162 µM) was 1.01. The relative viability (NCI-H1915; first compound 0.1 µM) was 0.981, the relative viability (A-427; first compound 0.001 µM) was 1.07 and the relative viability (A-427; first compound 0.01 µM) was 1.13. For the same molecule, the relative viability (A-427; first compound 0.03162 µM) was 1.06, the relative viability (A-427; first compound 0.1 µM) was 0.808 and the relative viability (NCI-H661; first compound 0.001 µM) was 0.647. The relative viability (NCI-H661; first compound 0.003162 µM) was 0.592, the relative viability (NCI-H661; first compound 0.01 µM) was 0.721 and the relative viability (NCI-H661; first compound 0.03162 µM) was 0.366. For the same molecule, the relative viability (NCI-H661; first compound 0.1 µM) was 0.651, the relative viability (COR-L23; first compound 0.001 µM) was 0.873 and the relative viability (COR-L23; first compound 0.03162 µM) was 0.901. For the same molecule, the relative viability (COR-L23; first compound 0.1 µM) was 0.791, the relative viability (NCI-H1993; first compound 0.001 µM) was 0.716 and the relative viability (NCI-H1993; first compound 0.003162 µM) was 0.66. It also gave a relative viability (NCI-H1993; first compound 0.01 µM) of 0.755, a relative viability (NCI-H1993; first compound 0.03162 µM) of 0.594 and a relative viability (NCI-H1993; first compound 0.1 µM) of 0.617. For the same molecule, the relative viability (COR-L 105; first compound 0.001 µM) was 0.905, the relative viability (COR-L 105; first compound 0.01 µM) was 1.22 and the relative viability (COR-L 105; first compound 0.03162 µM) was 0.92. It also gave a relative viability (COR-L 105; first compound 0.1 µM) of 0.917, a relative viability (HCC-366; first compound 0.001 µM) of 0.312 and a relative viability (HCC-366; first compound 0.003162 µM) of 0.43. It also gave a relative viability (HCC-366; first compound 0.01 µM) of 0.428, a relative viability (HCC-366; first compound 0.03162 µM) of 0.248 and a relative viability (HCC-366; first compound 0.1 µM) of 0.342. For the same molecule, the relative viability (PC-14; first compound 0.003162 µM) was 1.08 and the relative viability (PC-14; first compound 0.03162 µM) was 0.547.
